Species: Rattus norvegicus
Assay: DrugMatrix - Regimen: Daily Repeat
Assay type: toxicity, organism-based, Sprague-Dawley
Set-up: regimen Daily Repeat, gender Male, age 6-8 weeks
Conditions: in vivo, po, route oral GAVAGE, […]; for ABSOLUTE BASOPHIL / ABSOLUTE EOSINOPHIL / ABSOLUTE LYMPHOCYTE / ABSOLUTE MONOCYTE / ABSOLUTE SEGMENTED NEUTROPHIL / BASOPHIL / EOSINOPHIL / ERYTHROCYTE COUNT / HEMATOCRIT / HEMOGLOBIN / LEUKOCYTE COUNT / LYMPHOCYTE / MEAN CORPUSCULAR HEMOGLOBIN / MEAN CORPUSCULAR HEMOGLOBIN CONCENTRATION / MEAN CORPUSCULAR VOLUME / MONOCYTE / NEUTROPHIL / NUCLEATED RED BLOOD CELLS / PLATELET COUNT: tissue Blood; for ALANINE AMINOTRANSFERASE / ALBUMIN / ALKALINE PHOSPHATASE / ASPARTATE AMINOTRANSFERASE / BLOOD UREA NITROGEN / CARBON DIOXIDE / CHLORIDE / CHOLESTEROL / CREATINE PHOSPHOKINASE / CREATININE / GLUCOSE / LACTATE DEHYDROGENASE / LIPASE / PHOSPHORUS / POTASSIUM / SODIUM / TOTAL BILIRUBIN / TOTAL PROTEIN / URIC ACID: tissue Plasma
[1] = 0 mg/kg, 72 h, dose level Control, time 3 day
[2] = 0 mg/kg, 120 h, dose level Control, time 5 day
[3] = 10 mg/kg, 72 h, dose level Low, time 3 day

COc1cc(N)c(Cl)cc1C(=O)NC1CCN(CCCOc2ccc(F)cc2)CC1OC (centres undefined) [CISAPRIDE]
ABSOLUTE BASOPHIL [1]: 0 CELLS/uL
ABSOLUTE EOSINOPHIL [1]: 13.67 CELLS/uL
ABSOLUTE LYMPHOCYTE [1]: 10069.5 CELLS/uL
ABSOLUTE MONOCYTE [1]: 50 CELLS/uL
ABSOLUTE SEGMENTED NEUTROPHIL [1]: 516.83 CELLS/uL
BASOPHIL [1]: 0%
EOSINOPHIL [1]: 0.17%
ERYTHROCYTE COUNT [1]: 5.44 x10E6/uL
HEMATOCRIT [1]: 33.88%
HEMOGLOBIN [1]: 13.23 G/DL
LEUKOCYTE COUNT [1]: 10.65 x10E3/uL
LYMPHOCYTE [1]: 94.67%
MEAN CORPUSCULAR HEMOGLOBIN [1]: 24.37 pg
MEAN CORPUSCULAR HEMOGLOBIN CONCENTRATION [1]: 39.05 G/DL
MEAN CORPUSCULAR VOLUME [1]: 62.38 fL
MONOCYTE [1]: 0.67%
NEUTROPHIL [1]: 4.5%
NUCLEATED RED BLOOD CELLS [1]: 0.33 /100WBC
PLATELET COUNT [1]: 414.5 x10E3/uL
ALANINE AMINOTRANSFERASE [1]: 72 u/L
ALBUMIN [1]: 3.75 G/DL
ALKALINE PHOSPHATASE [1]: 375 u/L
ASPARTATE AMINOTRANSFERASE [1]: 87.5 u/L
BLOOD UREA NITROGEN [1]: 14 mg/dL
CARBON DIOXIDE [1]: 27.5 mmol/L
CHLORIDE [1]: 95.83 MEQ/L
CHOLESTEROL [1]: 68.5 mg/dL
CREATINE PHOSPHOKINASE [1]: 284.33 u/L
CREATININE [1]: 0.16 mg/dL
GLUCOSE [1]: 156.67 mg/dL
LACTATE DEHYDROGENASE [1]: 101.83 u/L
LIPASE [1]: 9.67 u/L
PHOSPHORUS [1]: 10.33 mg/dL
POTASSIUM [1]: 5.22 MEQ/L
SODIUM [1]: 137.67 MEQ/L
TOTAL BILIRUBIN [1]: 0.13 mg/dL
TOTAL PROTEIN [1]: 5.43 G/DL
URIC ACID [1]: 0.8 mg/dL
ABSOLUTE BASOPHIL [2]: 0 CELLS/uL
ABSOLUTE EOSINOPHIL [2]: 20.67 CELLS/uL
ABSOLUTE LYMPHOCYTE [2]: 11518.33 CELLS/uL
ABSOLUTE MONOCYTE [2]: 47 CELLS/uL
ABSOLUTE SEGMENTED NEUTROPHIL [2]: 614 CELLS/uL
BASOPHIL [2]: 0%
EOSINOPHIL [2]: 0.17%
ERYTHROCYTE COUNT [2]: 5.61 x10E6/uL
HEMATOCRIT [2]: 34.25%
HEMOGLOBIN [2]: 13.38 G/DL
LEUKOCYTE COUNT [2]: 12.2 x10E3/uL
LYMPHOCYTE [2]: 94.33%
MEAN CORPUSCULAR HEMOGLOBIN [2]: 23.83 pg
MEAN CORPUSCULAR HEMOGLOBIN CONCENTRATION [2]: 39.08 G/DL
MEAN CORPUSCULAR VOLUME [2]: 61.03 fL
MONOCYTE [2]: 0.33%
NEUTROPHIL [2]: 5.17%
NUCLEATED RED BLOOD CELLS [2]: 0 /100WBC
PLATELET COUNT [2]: 941.83 x10E3/uL
ALANINE AMINOTRANSFERASE [2]: 68.83 u/L
ALBUMIN [2]: 4.12 G/DL
ALKALINE PHOSPHATASE [2]: 492.67 u/L
ASPARTATE AMINOTRANSFERASE [2]: 83.33 u/L
BLOOD UREA NITROGEN [2]: 14 mg/dL
CARBON DIOXIDE [2]: 37 mmol/L
CHLORIDE [2]: 98.67 MEQ/L
CHOLESTEROL [2]: 56.5 mg/dL
CREATINE PHOSPHOKINASE [2]: 167.33 u/L
CREATININE [2]: 0.17 mg/dL
GLUCOSE [2]: 157.5 mg/dL
LACTATE DEHYDROGENASE [2]: 104.83 u/L
LIPASE [2]: 10 u/L
PHOSPHORUS [2]: 10.43 mg/dL
POTASSIUM [2]: 5.46 MEQ/L
SODIUM [2]: 143.87 MEQ/L
TOTAL BILIRUBIN [2]: 0.17 mg/dL
TOTAL PROTEIN [2]: 5.72 G/DL
URIC ACID [2]: 0.85 mg/dL
ABSOLUTE BASOPHIL [3]: 0 CELLS/uL
ABSOLUTE EOSINOPHIL [3]: 28.67 CELLS/uL
ABSOLUTE LYMPHOCYTE [3]: 6489.33 CELLS/uL
ABSOLUTE MONOCYTE [3]: 15.33 CELLS/uL
ABSOLUTE SEGMENTED NEUTROPHIL [3]: 433.33 CELLS/uL
BASOPHIL [3]: 0%
EOSINOPHIL [3]: 0.33%
ERYTHROCYTE COUNT [3]: 5.4 x10E6/uL
HEMATOCRIT [3]: 33.3%
HEMOGLOBIN [3]: 13.8 G/DL
LEUKOCYTE COUNT [3]: 6.97 x10E3/uL
LYMPHOCYTE [3]: 93%
MEAN CORPUSCULAR HEMOGLOBIN [3]: 25.63 pg
MEAN CORPUSCULAR HEMOGLOBIN CONCENTRATION [3]: 41.53 G/DL
MEAN CORPUSCULAR VOLUME [3]: 61.73 fL
MONOCYTE [3]: 0.33%
NEUTROPHIL [3]: 6.33%
NUCLEATED RED BLOOD CELLS [3]: 0 /100WBC
PLATELET COUNT [3]: 546 x10E3/uL
ALANINE AMINOTRANSFERASE [3]: 94.67 u/L
ALBUMIN [3]: 3.93 G/DL
ALKALINE PHOSPHATASE [3]: 442.33 u/L
ASPARTATE AMINOTRANSFERASE [3]: 96.33 u/L
BLOOD UREA NITROGEN [3]: 14.33 mg/dL
CARBON DIOXIDE [3]: 26 mmol/L
CHLORIDE [3]: 96.33 MEQ/L
CHOLESTEROL [3]: 72.67 mg/dL
CREATINE PHOSPHOKINASE [3]: 359.33 u/L
CREATININE [3]: 0.12 mg/dL
GLUCOSE [3]: 150 mg/dL
LACTATE DEHYDROGENASE [3]: 116.67 u/L
LIPASE [3]: 12 u/L
PHOSPHORUS [3]: 10.9 mg/dL
POTASSIUM [3]: 5.56 MEQ/L
SODIUM [3]: 139.97 MEQ/L
TOTAL BILIRUBIN [3]: 0.2 mg/dL
TOTAL PROTEIN [3]: 5.53 G/DL
URIC ACID [3]: 0.7 mg/dL

Source: ChEMBL document CHEMBL3885881, “DrugMatrix”
